Data on 10 molecules can be found in patent EP0081425B1, “Pharmaceutical compositions having normolipemic properties and containing compounds of the n-substituted benzenesulfonamide type” (priority 1981, dated 1983).

Series [1] deals with animaux ayant reçu pendant une durée prolongée un régime athéromateux. Nature of the series: Atheromatous diet test (cholesterol/cholic acid diet + vitamin D2): biochemical, macroscopic and microscopic examinations. In kind it is in vivo, rats WISTAR femelles. The text has this: Dans une deuxième série expérimentale, on a testé l'activité de certains produits de l'invention sur des animaux ayant reçu pendant une durée prolongée un régime athéromateux.
L'essai s'effectue sur des rats WISTAR femelles, d'un poids d'environ 160-180 g.
Les animaux reçoivent une alimentation provenant de l'usine d'alimentation nationale de Villemois- son-Sur-Orge, France, et désignée sous la référence UAR A03, enrichie en cholestérol (0,5 %) et en acide cholique (0,5 %).
Après 15 jours de régime athéromateux et tout en maintenant les animaux sous régime athéromateux, on leur administre par voie orale pendant 4 jours 250 000 ui/kg de vitamine D2 commercialisée sous le nom de Stérogyl 25H, en solution dans de l'huile d'olive.
On administre ensuite les produits à étudier pendant 4 semaines, dès la fin de l'administration de l'agent lésionnel.
La quantité de produit administrée aux animaux est de 100 mg/kg.
En fin d'étude, on effectue sur tous les animaux des examens biochimiques (cholestérol total, cholesterol high density lipoprotein (HDL) et cholesterol low density lipoprotein (LDL), et triglycérides).
En fin d'étude, tous les animaux encore vivants sont sacrifiés, et l'on prélève divers organes dont particulièrement l'aorte, pour l'étude histologique de cette dernière. Deux critères sont étudiés : le nombre de zones athéromateuses et l'intensité des lésions.
Le calcul des cotations s'effectue de la façon suivante : • en ce qui concerne l'intensité des lésions, on effectue une cotation allant de 0 pour l'absence de lésion à […] pour les lésions les plus fortes, et ceci pour chaque type d'altération considéré (augmentation des espaces interlamellalres, interruption des lames élastiques, épaississement des lames élastiques, dépôt de calcium, dépôt de mucopolysaccharides); puis on fait l'addition de la totalité des résultats par lot d'animaux; • en ce qui concerne le nombre de zones athéromateuses, par comptage de ces dernières et addition de la totalité des chiffres obtenus par lot d'animaux.
On calcule ensuite le pourcentage de diminution par rapport aux témoins régime et le score, c'est-à-dire le rapport de l'intensité de l'activité du produit testé vis-à-vis de celle de l'activité du clofibrate, compté pour 1.
Le tableau IV donne les résultats détaillés des examens biochimiques : • a) en % de diminution par rapport au témoin régime; • b) en score, par rapport au produit de référence, le clofibrate, ce dernier étant compté pour 1.
Le tableau V donne le résultat des examens macroscopiques : • a) en % de diminution des animaux atteints de lésions; • b) en score par rapport au clofibrate de référence, dont le score est compté pour 1.
Le tableau VI donne les résultats microscopiques avec cotation histologique concernant l'intensité des lésions, et le nombre de zones athéromateuses.

Series [2] relates to hyperlipidémie provoquée par l'administration de TRITON®. Nature of the series: Triton test: hyperlipidemia induced by i.v. TRITON W.R. in fasted rats. Conditions: for Cholestérol estérifié Score (par rapport au clofibrate compté pour 1) / Cholestérol total Score (par rapport au clofibrate compté pour 1) / Lipides totaux Score (par rapport au clofibrate compté pour 1) / Triglycérides Score (par rapport au clofibrate compté pour 1): ratio to clofibrate of the same series; for inhibition in vivo at 250 mg/kg: Rattus norvegicus, po, blood assayed 6 h and/or 24 h later. In kind it is in vivo, rats WISTAR mâles. The text has this:
Dans une première série d'expériences, des produits ont été testés sur une hyperlipidémie provoquée par l'administration de TRITON® selon le protocole suivant.
Les essais ont été réalisés sur des groupes de cinq rats WISTAR mâles dont le poids varie de 150 à 175 g.
Pour effectuer ces essais, on provoque une hyperlipidémie chez les animaux, au moyen du produit commercialisé par la Société ROHM and HAAS sous le nom de TRITON® W. R.
On observe, sur cette hyperlipidémie, les effets obtenus par administration des substances actives selon l'invention.
Les essais sont réalisés comme suit : • les rats sont mis à jeûner pendant 18 heures, puis on administre le TRITON® W.R. par voie intraveineuse en solution aqueuse à 10 % à raison de 200 mg/kg ;
6 heures et/ou 24 heures plus tard, on effectue les dosages sur le sang de façon traditionnelle.
Dans la première colonne, on a indiqué le numéro du composé testé.
Dans la deuxième colonne, on a indiqué le nombre d'animaux qui ont été soumis au test.
Dans les quatre dernières colonnes, on a indiqué les résultats relatifs respectivement : • aux lipides totaux, • aux triglycérides, • au cholestérol total, • au cholestérol estérifié.
Dans chacune de ces colonnes, on indique : • a) le pourcentage de diminution par rapport au témoin TRITON; • b) le score par rapport au clofibrate de référence, c'est-à-dire le rapport de l'intensité de l'activité du produit testé vis-à-vis de celle,de l'activité au clofibrate comptée pour 1.

The subject of series [3] is souris mâles et femelles. Nature of the series: Acute oral toxicity (lethal dose). In kind it is in vivo. Conditions: for DL0 / DL100: oral. The text has this:
(§1) La toxioité aiguë est exprimée par la dose létale 50, c'est-à-dire la dose létale entraînant la mort de 50 % des animaux.
(§2) Cette étude a été effectuée sur des souris mâles et femelles auxquelles on a administré les produits à tester par voie orale à des concentrations différentes et on a mesuré la létalité sur dix souris mâles et sur 10 souris femelles.

Series [4] is described as follows: Acute oral toxicity (lethal dose). The format is in vivo. To be noted: mouse, in vivo, po, oral, read-out: DL50 (the source's name) (converted).
From the text: as §1, §2

[5] abbreviates: macroscopic examination, 100 mg/kg for 4 weeks.
[6] abbreviates: 250 mg/kg oral, given with TRITON W.R. 200 mg/kg i.v., read-out: Cholestérol estérifié % (pourcentage de diminution par rapport au témoin TRITON).
Setting [7] is: 250 mg/kg oral, given with TRITON W.R. 200 mg/kg i.v., read-out: Cholestérol total % (pourcentage de diminution par rapport au témoin TRITON).
[8] abbreviates: 250 mg/kg oral, given with TRITON W.R. 200 mg/kg i.v., read-out: Triglycérides % (pourcentage de diminution par rapport au témoin TRITON).
Setting [9] is: read-out: Lipides totaux % (pourcentage de diminution par rapport au témoin TRITON), 250 mg/kg oral, given with TRITON W.R. 200 mg/kg i.v.

Where two headings read alike, the source gives them in different places.

Turning to `CCOC(=O)C(C)(C)Oc1ccc(Cl)cc1` [Clofibrate], in series [1] (100 mg/kg for 4 weeks), the “CHOLESTEROL HDL Score (clofibrate compté pour 1)” value is reported as 1,00, the “CHOLESTEROL LDL Score (clofibrate compté pour 1)” value is given as 1,00, the “CHOLESTEROL T Score (clofibrate compté pour 1)” value was 1,00 and the “TRIGLYCERIDES Score (clofibrate compté pour 1)” value is recorded as 1,00. Besides, in series [1] (setting [5]), the “ANIMAUX ATTEINTS %” value is reported as 81,82% and the “ANIMAUX ATTEINTS SCORE CLOFIBRATE” value is 1,00. Moreover, the “NOMBRE DE ZONES ATHEROMATEUSES POUR 15 ANIMAUX Score Clofibrate” value in series [1] (microscopic examination) was 1,00. The “COTATION HISTOLOGIQUE Cotation” value in series [1] (microscopic examination of the aorta, intensity of lesions, sum per group, 100 mg/kg for 4 weeks) is 49,10. Besides, the “NOMBRE DE ZONES ATHEROMATEUSES POUR 15 ANIMAUX Cotation” value in series [1] (microscopic examination of the aorta, 100 mg/kg for 4 weeks) is on record as 72,30. Also, in series [1] (microscopic examination, intensity of lesions), the “COTATION HISTOLOGIQUE Score Clofibrate” value is recorded as 1,00. In addition, in series [2] (250 mg/kg oral), the “Cholestérol estérifié Score (par rapport au clofibrate compté pour 1)” value (“Cholestérol estérifié Score” below) was 1,00, the “Cholestérol total Score (par rapport au clofibrate compté pour 1)” value (shortened to “Cholestérol total Score”) was 1,00, the “Lipides totaux Score (par rapport au clofibrate compté pour 1)” value (shortened to “Lipides totaux Score”) is on record as 1,00 and the “Triglycérides Score (par rapport au clofibrate compté pour 1)” value is given as 1,00.
With `CCC(CO)NS(=O)(=O)c1cc(Cl)c([N+](=O)[O-])cc1OC` (stereo not drawn) [compound 316], the DL0 in series [3] (Souris femelles) is ≥ 15 000 mg/kg; in series [3] (Souris mâles), 15 000 mg/kg. In addition, the DL100 is listed as > 15 000 mg/kg in series [3] (Souris femelles) and > 20 000 mg/kg in series [3] (Souris mâles). Besides, the “toxicité par voie digestive” value in series [3] (conclusion in words from all results) is given as “pratiquement dénué de toxicité par voie digestive”. Further, the LD50 was more than 15000 mg/kg in series [4] (Souris femelles) and 18500 mg/kg in series [4] (Souris mâles). In addition, the “Cholestérol estérifié Score” value in series [2] (250 mg/kg oral) is given as 0,63. Further, in series [2] (250 mg/kg oral), the “Cholestérol total Score” value is 1,17. Moreover, the “Lipides totaux Score” value in series [2] (250 mg/kg oral) is recorded as 3,09. The inhibition in vivo at 250 mg/kg in series [2] (setting [6]) worked out at 31.2%; in series [2] (setting [7]), 11.1%; in series [2] (setting [8]), 0%; in series [2] (setting [9]), 42.6%.
In the case of `COc1cc([N+](=O)[O-])c(Cl)cc1S(=O)(=O)NCC(C)O` (stereo not drawn) [compound 322, chloro-5 N-(hydroxy-2 propyl) méthoxy-2 nitro-4 benzènesulfonamide], in series [2] (250 mg/kg oral), the “Cholestérol estérifié Score” value is 0,27, the “Cholestérol total Score” value was 0,83, the “Lipides totaux Score” value is recorded as 3,15 and the “Triglycérides Score (par rapport au clofibrate compté pour 1)” value is listed as 1,02. Also, in series [2] (setting [6]), the inhibition in vivo at 250 mg/kg amounted to 13.1%. The inhibition in vivo at 250 mg/kg in series [2] (setting [7]) came to 7.9%. Moreover, the inhibition in vivo at 250 mg/kg in series [2] (setting [8]) is 73.4%. Also, the inhibition in vivo at 250 mg/kg in series [2] (setting [9]) stood at 43.5%.
With `COc1ccc(Cl)cc1S(=O)(=O)N(C)CCO` [compound 324], the “Cholestérol estérifié Score” value in series [2] (250 mg/kg oral) is 0,52. Besides, in series [2] (250 mg/kg oral), the “Cholestérol total Score” value is recorded as 2,85. Moreover, in series [2] (250 mg/kg oral), the “Lipides totaux Score” value was 0,58. The inhibition in vivo at 250 mg/kg in series [2] (setting [6]) amounted to 22.6%; in series [2] (setting [7]) it was 26.2%; in series [2] (setting [8]) it was 19.4%; in series [2] (setting [9]) it was 25.9%.
With `COc1cc([N+](=O)[O-])ccc1S(=O)(=O)N(C)CCO` [compound 325], the “Cholestérol estérifié Score” value in series [2] (250 mg/kg oral) is reported as 0,04. Further, the “Lipides totaux Score” value in series [2] (250 mg/kg oral) is 0,06. Besides, the inhibition in vivo at 250 mg/kg in series [2] (setting [6]) worked out at 1.6%; in series [2] (setting [7]) it was 0%; in series [2] (setting [8]), 0%; in series [2] (setting [9]) it was 2.7%.
As for `COc1cc(N)ccc1S(=O)(=O)N(C)CCO` [compound 326], the “Cholestérol estérifié Score” value in series [2] (250 mg/kg oral) is on record as 0,67. Besides, the “Cholestérol total Score” value in series [2] (250 mg/kg oral) was 0,41. Also, in series [2] (250 mg/kg oral), the “Lipides totaux Score” value was 0,71. For the same molecule, the inhibition in vivo at 250 mg/kg is 29% in series [2] (setting [6]), 3.8% in series [2] (setting [7]), 20.3% in series [2] (setting [8]) and 31.9% in series [2] (setting [9]).
Turning to `COc1ccc([N+](=O)[O-])cc1S(=O)(=O)N(C)CCO` [compound 327], in series [2] (250 mg/kg oral), the “Lipides totaux Score” value was 0,53. The inhibition in vivo at 250 mg/kg in series [2] (setting [6]) turned out to be 0%; in series [2] (setting [7]) it was 0%; in series [2] (setting [8]), 9%; in series [2] (setting [9]) it was 23.6%.
Take `COc1ccc(N)cc1S(=O)(=O)N(C)CCO` [compound 328]: the “Lipides totaux Score” value in series [2] (250 mg/kg oral) was 0,46. Besides, the inhibition in vivo at 250 mg/kg in series [2] (setting [6]) came out at 0%; in series [2] (setting [7]) it was 0%; in series [2] (setting [8]), 0%; in series [2] (setting [9]), 20.7%.
Consider `COc1cc([N+](=O)[O-])c(Cl)cc1S(=O)(=O)N(C)CCO` [compound 329], for which the “Lipides totaux Score” value in series [2] (250 mg/kg oral) was 0,84. Moreover, the inhibition in vivo at 250 mg/kg in series [2] (setting [6]) was found to be 0%; in series [2] (setting [7]) it was 0%; in series [2] (setting [8]) it was 40%; in series [2] (setting [9]), 37.6%.
For the molecule `COc1cc(N)c(Cl)cc1S(=O)(=O)N(C)CCO` [compound 330], the “Cholestérol estérifié Score” value in series [2] (250 mg/kg oral) was 0,96. The inhibition in vivo at 250 mg/kg in series [2] (setting [6]) was found to be 41.9%; in series [2] (setting [7]), 0%; in series [2] (setting [8]), 0%.
